From publication PMC6377466 (Proceedings of the National Academy of Sciences of the …, 2019) come the findings set out here.

The target of assay [1] is T1, KRAS166^G12V (Homo sapiens, UniProt P01116, G12V).
T1 construct: gene KRAS; KRAS166
Put plainly: SPR screen and waterLOGSY NMR. It counts as binding.

Assay [2] addresses T2, HRAS^G12V (Homo sapiens, UniProt P01112, G12V).
T2 construct: full-length (RLuc8 fusion); with CRAF
As to the kind of experiment: cell BRET RAS-effector interaction assay, dose response […]. The assay is classed as cell-based.

Assay [3] concerns the target T3, NRAS^Q61H (Homo sapiens, UniProt P01111, Q61H).
T3 construct: full-length (RLuc8 fusion); with CRAF
Described as above. The assay is classed as cell-based.

Consider `COc1cccc(-c2cccc(CC3(C(=O)NCCCn4ccnc4)CCOCC3)c2)c1` [PPIN-2], for which the “SPR screen and waterLOGSY NMR” value in assay [1] is “PPIN-1 and -2 were confirmed to bind to KRAS166^G12V”.
With `COc1cccc(-c2ccc(Nc3ccc(CN(C)C)cc3)c(OC)c2F)c1` [Ch-3], the “cell BRET RAS-effector interaction assay, dose response 5-20 μM” value in assay [2] was “Ch-3 interferes with NRAS and HRAS isoforms using the BRET biosensor assay”; in assay [3] it was “Ch-3 interferes with NRAS and HRAS isoforms using the BRET biosensor assay”.
For the molecule `CCCN1CCN(C(=O)c2c[nH]cn2)CC(Cc2ccc(-c3ccccc3)cc2)C1=O` (stereo not shown) [PPIN-1], in assay [1], the “SPR screen and waterLOGSY NMR” value is “PPIN-1 and -2 were confirmed to bind to KRAS166^G12V”.
